# Data published in patent US6723733B2, “Sulfonamide and carbamide derivatives of 6(5H)phenanthridinones and their uses” (Guilford Pharmaceuticals, Inc., priority 2000, dated 2004).
# Target: T1, purified recombinant human PARP (Homo sapiens, UniProt P09874)
# T1 construct: purchased Trevigan (Gaithersburg, Md.)
# Experiment: PARP enzyme assay (IC50), [3H]NAD incorporation
# Format: biochemical
# Details: approximate IC50 values; 25° C., 15 minutes
# Experimental: The reaction is initiated by incubating the mixture at 25° C. After 15 minutes of incubation. the reaction is terminated by adding 500 microliters of ice cold 20% (w/v) trichloroacetic acid. The precipitate formed is transferred onto a glass fiber filter (Packard Unifilter-GF/B) and washed three times with ethanol. After the filter is dried, the radioactivity is determined by scintillation counting.
# T1 sequence (P09874 whole entry): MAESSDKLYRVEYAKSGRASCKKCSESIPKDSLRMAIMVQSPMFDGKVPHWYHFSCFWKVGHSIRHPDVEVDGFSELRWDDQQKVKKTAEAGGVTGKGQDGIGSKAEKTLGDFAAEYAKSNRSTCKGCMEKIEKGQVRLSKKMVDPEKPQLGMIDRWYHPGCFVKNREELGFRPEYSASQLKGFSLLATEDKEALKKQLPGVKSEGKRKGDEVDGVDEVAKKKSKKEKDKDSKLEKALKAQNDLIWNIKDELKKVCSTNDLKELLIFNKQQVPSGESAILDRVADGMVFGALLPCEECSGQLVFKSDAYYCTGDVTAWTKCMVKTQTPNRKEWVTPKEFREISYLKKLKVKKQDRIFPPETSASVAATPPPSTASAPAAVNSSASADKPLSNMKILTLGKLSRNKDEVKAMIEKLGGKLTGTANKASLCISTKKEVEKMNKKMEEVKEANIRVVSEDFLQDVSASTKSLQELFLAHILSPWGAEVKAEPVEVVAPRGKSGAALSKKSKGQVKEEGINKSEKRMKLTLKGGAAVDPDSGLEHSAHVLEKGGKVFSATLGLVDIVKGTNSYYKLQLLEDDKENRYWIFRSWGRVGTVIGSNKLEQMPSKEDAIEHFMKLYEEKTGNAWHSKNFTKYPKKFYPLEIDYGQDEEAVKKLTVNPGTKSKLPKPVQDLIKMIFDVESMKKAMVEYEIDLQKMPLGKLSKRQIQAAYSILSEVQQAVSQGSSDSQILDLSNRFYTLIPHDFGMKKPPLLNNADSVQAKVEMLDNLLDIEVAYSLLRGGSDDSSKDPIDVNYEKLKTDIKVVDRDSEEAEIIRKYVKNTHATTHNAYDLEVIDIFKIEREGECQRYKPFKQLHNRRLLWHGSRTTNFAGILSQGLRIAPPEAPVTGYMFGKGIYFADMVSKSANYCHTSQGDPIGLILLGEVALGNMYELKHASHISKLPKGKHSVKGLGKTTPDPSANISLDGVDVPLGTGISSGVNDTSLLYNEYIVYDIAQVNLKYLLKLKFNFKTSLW
row,Compound,IC50 [nM]
1,Cc1ccc(S(=O)(=O)Nc2ccc3[nH]c(=O)c4ccccc4c3c2)cc1 [Compound 1],120
2,O=C(c1ccc2c(c1)[nH]c(=O)c1ccccc12)N1CCOCC1 [Compound 2],100000
3,O=c1[nH]c2ccc(S(=O)(=O)NCCN3CCOCC3)cc2c2ccccc12 [Compound 4],140
4,O=C(NCc1ccccc1)c1ccc2c(c1)[nH]c(=O)c1cc(F)ccc12 [Compound 16],399
5,O=C(NCCc1ccccc1)c1ccc2c(c1)[nH]c(=O)c1cc(F)ccc12 [Compound 18],150
6,COC(=O)[C@@H]1CCCN1C(=O)c1ccc2c(c1)[nH]c(=O)c1cc(F)ccc12 [Compound 19],157
7,O=C(O)[C@@H]1CCCN1C(=O)c1ccc2c(c1)[nH]c(=O)c1cc(F)ccc12 [Compound 21],124
8,O=c1[nH]c2ccc(S(=O)(=O)O)cc2c2ccccc12 [Compound 22],115
9,O=C(O)CCC(NC(=O)c1ccc2c(c1)[nH]c(=O)c1ccccc12)C(=O)O (centres unmarked) [Compound 25],272
10,CCC(C)C(NC(=O)c1ccc2c(c1)[nH]c(=O)c1ccccc12)C(=O)O (centres unmarked) [Compound 26],711
11,O=C(O)CCC(=O)Nc1ccc2[nH]c(=O)c3ccccc3c2c1 [Compound 27],111
12,NCCCCC(NC(=O)c1ccc2c(c1)[nH]c(=O)c1ccccc12)C(=O)O (centres unmarked) [Compound 28],341
13,COC(=O)[C@@H]1CCCN1C(=O)c1ccc2c(c1)[nH]c(=O)c1ccccc12 [Compound 41],118
14,CC(=O)Nc1cc2c(cc1C)[nH]c(=O)c1ccccc12 [Compound 45],229
15,Cc1cc2[nH]c(=O)c3ccccc3c2cc1NC(=O)CCl [Compound 47],152
16,Cc1cc2[nH]c(=O)c3ccccc3c2cc1NC(=O)c1cccc(F)c1 [Compound 52],1200
17,Cc1cc2[nH]c(=O)c3ccccc3c2cc1NC(=O)C[N+](C)(C)C [Compound 54],195
18,Cc1ccc(S(=O)(=O)Nc2cc3c(cc2C)[nH]c(=O)c2ccccc23)cc1 [Compound 56],5900
19,O=C(NCCCc1ccccc1)c1ccc2c(c1)[nH]c(=O)c1cc(F)ccc12 [Compound 57],415
20,COC(=O)C1CCCN1S(=O)(=O)c1ccc2[nH]c(=O)c3ccccc3c2c1 (centres unmarked) [Compound 58],1100
21,Cc1cc2[nH]c(=O)c3ccccc3c2cc1NC(=O)CCc1ccccc1 [Compound 59],7500
22,COc1ccc(S(=O)(=O)Nc2cc3c(cc2C)[nH]c(=O)c2ccccc23)cc1 [Compound 60],11500
23,O=C(c1ccc(F)cc1)C1CCN(S(=O)(=O)c2ccc3[nH]c(=O)c4ccccc4c3c2)CC1 [Compound 61],319
24,Cc1cc2[nH]c(=O)c3ccccc3c2cc1NC(=O)Cc1ccc(F)cc1 [Compound 62],449
25,Cc1cc2[nH]c(=O)c3ccccc3c2cc1NC(=O)C(C)Br (centres unmarked) [Compound 63],174
26,CCOC(=O)C1CCN(S(=O)(=O)c2ccc3[nH]c(=O)c4ccccc4c3c2)CC1 [Compound 65],200
27,O=c1[nH]c2ccc(S(=O)(=O)N3CCCC(CO)C3)cc2c2ccccc12 (centres unmarked) [Compound 67],164
28,CC(=O)NCCN1CCN(S(=O)(=O)c2ccc3[nH]c(=O)c4ccccc4c3c2)CC1 [Compound 68],142

# Continued, values first:
row,IC50 [nM],Compound
1,80,O=C(CCl)Nc1ccc2[nH]c(=O)c3ccccc3c2c1 [Compound 5]
2,30,C[N+](C)(C)CC(=O)Nc1ccc2[nH]c(=O)c3ccccc3c2c1 [Compound 7]
3,60,O=c1[nH]c2ccc(S(=O)(=O)NCCN(CCO)CCO)cc2c2ccccc12 [Compound 8]
4,40,O=C(NCCN1CCOCC1)c1ccc2c(c1)[nH]c(=O)c1ccccc12 [Compound 9]
5,90,O=C(O)[C@H]1CCCN1C(=O)c1ccc2c(c1)[nH]c(=O)c1ccccc12 [Compound 10]
6,33,Cc1cccc2c(=O)[nH]c3cc(C(F)(F)F)c(NC(=O)CCl)cc3c12 [Compound 20]
7,56,CC(NC(=O)c1ccc2c(c1)[nH]c(=O)c1ccccc12)C(=O)O (centres unmarked) [Compound 24]
8,54,CCCCC(NC(=O)c1ccc2c(c1)[nH]c(=O)c1ccccc12)C(=O)O (centres unmarked) [Compound 29]
9,83,O=C(NC(CO)C(=O)O)c1ccc2c(c1)[nH]c(=O)c1ccccc12 (centres unmarked) [Compound 30]
10,69,O=C(Nc1ccc2[nH]c(=O)c3ccccc3c2c1)c1ccc(F)cc1 [Compound 31]
11,36,C[C@H](NC(=O)c1ccc2c(c1)[nH]c(=O)c1ccccc12)C(=O)O [Compound 32]
12,45,O=C(N[C@@H](Cc1ccc(F)cc1)C(=O)O)c1ccc2c(c1)[nH]c(=O)c1ccccc12 [Compound 33]
13,65,O=C(N[C@@H](Cc1ccccc1)C(=O)O)c1ccc2c(c1)[nH]c(=O)c1ccccc12 [Compound 34]
14,83,O=C(N[C@@H](CS)C(=O)O)c1ccc2c(c1)[nH]c(=O)c1ccccc12 [Compound 35]
15,88,NCCCC[C@H](NC(=O)c1ccc2c(c1)[nH]c(=O)c1ccccc12)C(=O)O [Compound 37]
16,31,O=C(N[C@H](C(=O)O)c1ccccc1)c1ccc2c(c1)[nH]c(=O)c1ccccc12 [Compound 38]
17,25,CC(C)[C@H](NC(=O)c1ccc2c(c1)[nH]c(=O)c1ccccc12)C(=O)O [Compound 39]
18,35,O=C(NCCN1CCOCC1)c1ccc2c(c1)[nH]c(=O)c1ccccc12 [Compound 40]
19,19,O=C(NC(Cc1ccc2ccccc2c1)C(=O)O)c1ccc2c(c1)[nH]c(=O)c1ccccc12 (centres unmarked) [Compound 42]
20,108,CN1CCN(S(=O)(=O)c2ccc3c(c2)[nH]c(=O)c2cc(F)ccc23)CC1 [Compound 43]
21,19,O=c1[nH]c2cc(S(=O)(=O)NCCN3CCOCC3)ccc2c2ccc(F)cc12 [Compound 44]
22,37,COC(=O)c1ccc2c(c1)[nH]c(=O)c1cc(F)ccc12 [Compound 48]
23,80,O=C(NCCOCCO)c1ccc2c(c1)[nH]c(=O)c1ccccc12 [Compound 50]
24,99,NCCN1CCN(S(=O)(=O)c2ccc3[nH]c(=O)c4ccccc4c3c2)CC1 [Compound 51]
25,74,O=c1[nH]c2ccc(S(=O)(=O)NCCN3CCCC3)cc2c2ccccc12 [Compound 53]
26,94,O=c1[nH]c2ccc(S(=O)(=O)NCc3ccncc3)cc2c2ccccc12 [Compound 55]
27,43,O=c1[nH]c2ccc(S(=O)(=O)NC3CN4CCC3CC4)cc2c2ccccc12 (centres unmarked) [Compound 64]
28,99,CC(C)N(C(=O)c1ccc2c(c1)[nH]c(=O)c1ccccc12)C(C)C [Compound 66]
